From US20120016014A1, “BENZOTHIOPHENE CARBOXAMIDE COMPOUNDS, COMPOSITION AND APPLICATIONS THEREOF” (INDIAN INSTITUTE OF SCIENCE, priority 2010, published 2012)
Where “and” joins values, the source holds several entries; their conditions need not be identical. Equal entries are not always repeated. Where two headings read alike, the source gives them in different places.

Legend:
[1] = Mechanical hyperalgesia, Randall-Selitto, carrageenan induced; assay type: in vivo, rats; settings: 15 mg/kg b wt., after 1 hrs, basal level in 5 hrs
Experimental: Mechanical hyperalgesia was measured as hind limb withdrawal threshold in response to a mechanical stimulus applied to hind paws of rat using Randall-selitto meter, Randall and Selitto, 1957. To determine the mechanical hyperalgesia, the force was applied with increased pressure at a constant rate until the animal withdrew its limb. The base line nociceptive threshold was measured before induction of hyperalgesia. Moreover, hyperalgesia was induced by carrageenan and then groups of animal were treated with compound 4, compound 6 and compound 8 (15 mg/kg body weight) and Ibuprofen (50 mg/kg body weight). Control group was treated with physiological saline. […] The anti-nociceptive efficacy of the compounds has been evaluated the efficacy with paw withdrawal threshold latency of animals.

purified PfENR [2] = target: T1, purified PfENR (Plasmodium falciparum, UniProt Q9BH77); test: PfENR inhibition, standard enzyme assay; assay type: biochemical; settings: read-out: Inhibition of PfENR (IC50 μM)
T1 sequence (Q9BH77 22-432): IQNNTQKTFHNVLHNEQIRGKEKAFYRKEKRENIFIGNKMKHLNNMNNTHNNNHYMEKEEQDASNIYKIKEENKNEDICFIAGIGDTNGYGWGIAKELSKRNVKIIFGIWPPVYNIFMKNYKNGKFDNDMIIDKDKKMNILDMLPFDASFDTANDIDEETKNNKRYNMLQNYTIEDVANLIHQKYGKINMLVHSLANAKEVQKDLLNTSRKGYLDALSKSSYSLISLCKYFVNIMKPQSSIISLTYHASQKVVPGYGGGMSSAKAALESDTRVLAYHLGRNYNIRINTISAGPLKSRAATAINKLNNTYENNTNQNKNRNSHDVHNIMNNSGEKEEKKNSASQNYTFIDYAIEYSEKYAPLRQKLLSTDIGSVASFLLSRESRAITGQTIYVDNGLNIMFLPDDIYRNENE
Experimental: (§1) PfENR activity was determined using standard assay described earlier.

[3] = Hot plate latency test (thermal hyperalgesia); assay type: in vivo, rats; settings: for Analgesic activity compared with Ibuprofen, hot plate: compounds 15 mg/kg b. wt. vs Ibuprofen 50 mg/kg b. wt.
Experimental: The animals were housed in an animal house facility of National Institute of Immunology, India, with controlled temperature (22±2° C.) under a 12/12 h light/dark cycle. They had free access to food and water ad libitum. All experiments were conducted according to the guidelines of the international association for the study of pain and approved by the institutional ethical committee for animal research. All in vivo experiments were carried out on inbred male […] rats ( 200-320 g body weight). Same age and equal body weight of animals were used according to experiments. No animals were used for more than one experiment. Most popular non-steroidal anti-inflammatory drugs which are widely use for treatment of chronic and inflammatory pain, such as Ibuprofen, Naproxen, Ketoprofen, Aspirin, Nimesulide, Indomethacine were purchased from Cayman Chemicals, USA and used to evaluate the efficacy of drugs in animal model. These drugs and different derivatives of Benzothiophene were dissolved in minimum volume of Dimethyl sulfoxide (DMSO) and further diluted in Phosphate buffer saline prior to use. […] Withdrawal latency for tail flicking was measured. […] NSAIDs is commonly evaluated by hot plate latency assay whereby animals are exposed to thermal stimulus (54 degree […] time for hind paw licking is measured as behavioural response for pain.

Tail flick latency test = settings: 15 mg/kg b. wt. vs Ibuprofen 50 mg/kg b. wt., 30 min and 60 min post injection
Experimental: Hot plate latency test was performed under red light on the metal surface of hot plate analgesia meter (IITC, Life science, CA). Animals were placed individually on the surface of hot plate maintained at a constant temperature 54±1° C. The anti-nociceptive response was latency recorded from the time when animal was placed on the heated surface until the behavior response show licking of hind paw to avoid thermal nociception. A maximum hot plate latency of 30 sec was used for each animal to prevent paw tissue damage. Base line nociceptive latency was obtained for each animal prior to any drug administration. Thereafter, groups of animals were treated with different concentration of different derivatives of benzothiophene and well known NSAIDs. […] Subsequent nociceptive response latency for each animal was determined at 30 and 60 min after drug administration. […] In continuation of tail flick latency assay, the anti-nociceptive effect of the compounds was monitored. Rats treated as described above were subjected to determination of thermal nociceptive pain. Rats were confined in restrainer and allowed to accommodate. The tail withdrawal test consisted of immersing the posterior 8-10 cm of the tail in hot water bath maintained at 54±1° C. Withdrawal latency for tail flicking was measured. A maximum tail flick latency of 20 sec was permitted to minimize tissue damage.

[4] = system: Plasmodium falciparum 3D7; test: In vitro inhibition of P. falciparum 3D7 blood-stage parasites; assay type: cell-based; settings: for IC50: read-out: P. falciparum (IC50 μM)
Experimental: Benzothiophene carboxamide derivatives of the present invention were checked for their anti-parasitic activity against 3D7 (chloroquine sensitive strain) in an in vitro culture. […] To find out parasite stage where these compounds act, synchronised ring stage culture of P. falciparum was treated with 2.5 μM concentration of compounds 6 and 7. […] When compounds 6 and 7 were added at the trophozoite stage the cells could not proceed to the schizont stage indicating the growth inhibition occurs at trophozoite stage.
Synchronised culture of P. falciparum 3D7 was treated with 2.5 μM compound 10 and 11 at the ring stage.

HepG2 cells = test: Toxicity to HepG2 cells; assay type: cell-based; settings: one day treatment
[5] = system: blood-stage P. berghei ANKA; test: Experimental cerebral malaria in C57BL/6 mice; assay type: in vivo; settings: for Mean Survival Days (Observed for 25 days): 5 mg/kg body weight daily for six days
Experimental: C57BL/6 mice were infected with blood-stage P. berghei ANKA as discussed in the experimental section. After 24 hours of infection mice were treated intravenously with various doses of inhibitors. It was observed that all control mice developed hypothermia by day 2, ataxia and convulsions by day 3 and died by day 6, whereas inhibitor treated groups had considerably higher longevity (11-24 days). Though each group of mice developed hypothermia by day 4, convulsions and ataxia development were delayed in case of treated mice. […] The mice treated with 2.5 mg/kg body weight survived for 18 days. Even at or below 1 mg/kg body weight of inhibitor dose, the mice survived for 11 days, but paralysis and ataxia development occurred on Day 7.
[…]. The mice were treated for 6 days. […]. Chloroquine was used as the control drug. […].
Therefore, compounds 10 and 11 were also administered at 5 mg/Kg body weight. The compounds were administered through intraperitoneal, peroral, subcutaneous and intravenous routes. Compound 10 and 11 were administered once daily for 6 days. […]. The mean survival days for this treatment group was 16 (FIG. 12c and Table III). […]. Chloroquine was used as the control drug.

purified PfENR [6] = target: T1, purified PfENR; test: PfENR inhibition kinetics, cofactor potency and progress curve analysis; assay type: biochemical
Experimental: as §1
The accumulation of product further decreased when compound 6 was preincubated with the enzyme (curve c). On addition of NAD+ to this reaction the rate of product accumulation further decreased (curve d).
Progress curves for inhibition by varying concentrations of compounds 6 and 7 were examined in detail (FIGS. 16a and 16b). From the progress curve analyses, it was inferred that for each concentration of the inhibitors the initial and the steady state velocity decreased exponentially with time. At higher inhibitor concentration, steady state is reached rapidly with a decrease in steady state velocity (vs). […] Progress curves were analysed using equation 3a from which a series of Kobs values were obtained for each concentration of inhibitor.

[7] = system: hepatic cell stages of P. berghei; test: Inhibition of hepatic cell stages (EEFs) of P. berghei; assay type: cell-based
[8] = system: liver stage of Plasmodium; settings: Singh A. P. et al, IUBMB life 61, 923-928; read-out: IC50, inhibition of liver stage parasite development before invasion; cited from earlier work
[9] = Erythrocyte, growth inhibition, red blood cell stages of Plasmodium falciparum 3D7 (chloroquine sensitive)

## O=C(NCc1ccccc1)c1sc2ccccc2c1Br [Compound 4, N-benzyl-3-bromobenzo[b]thiophene-2-carboxamide]
[1]
  Mechanical hyperalgesia, paw withdrawal threshold: significantly reversed the mechanical hyperalgesia
Purified PfENR [2]
  IC50: 0.51 µM and 0.501 µM
other
  melting point: 115 to 117 °C
[3]
  Analgesic activity compared with Ibuprofen, hot plate: potent analgesic activity at much lower concentration than Ibuprofen
Tail flick latency test
  Anti-nociceptive response, tail flick latency assay: better anti-nociceptive response than the Ibuprofen
[4]; [9]
  IC50: 2 ± 0.5 µM

## O=C(NCc1ccc(F)cc1)c1sc2ccccc2c1Br [Compound 6, N-(4-fluorobenzyl)-3-bromobenzo[b]thiophene-2-carboxamide]
HepG2 cells
  TC50 for HepG2 cells: 2000 ± 200 µM
[5]; 2.5 mg/kg body weight intravenously, C57BL/6 mice
  Survival, dose determination: 18 days
[5]; 5 mg/kg body weight
  Kidney and liver functions (urea, creatinine and glucose levels): normal kidney and liver functions
[5]; 5 mg/kg body weight intravenously, C57BL/6 mice
  Survival, dose determination: 24 days
[5]; 10 mg/kg body weight intravenously, C57BL/6 mice
  Survival, dose determination: 20 days
[5]; Intraperitoneal, C57BL/6 mice, 5 mg/kg
  Mean Survival Days (Observed for 25 days): 20 ± 0.9 days
[5]; Intraperitoneal, C57BL/6 mice, listed as compound 6, 5 mg/kg
  Mean Survival Days (Observed for 25 days): 21 days
[5]; Intravenous, C57BL/6 mice, 5 mg/kg
  Mean Survival Days (Observed for 25 days): 24 ± 2.0 days
[5]; Intravenous, C57BL/6 mice, listed as compound 6, 5 mg/kg
  Mean Survival Days (Observed for 25 days): 24 days
[5]; Per oral, C57BL/6 mice
  Mean Survival Days (Observed for 25 days): 12 ± 1.2 days
[5]; Subcutaneous, C57BL/6 mice, 5 mg/kg
  Mean Survival Days (Observed for 25 days): 18 ± 1.3 days
[5]; Subcutaneous, C57BL/6 mice, listed as compound 6, 5 mg/kg
  Mean Survival Days (Observed for 25 days): 21 days
[5]; at or below 1 mg/kg body weight intravenously, C57BL/6 mice
  Survival, dose determination: 11 days
[5]; intravenous treatment, C57BL/6 mice
  Parasitemia levels (Peter's test): undetectable level by Day 18
[5]; oral route, 5 mg/kg body weight, 6 days treatment
  Increase of longevity: 5 days
Purified PfENR [6]; 10 μM NAD+ added to preincubated mixture
  Effect of NAD+ on binding to PfENR (cofactor potency assay): potentiate the binding
Purified PfENR [6]; Dixon plot, cofactor NADH
  Inhibition kinetics with respect to NADH: competitive kinetics with NADH
Purified PfENR [6]; Dixon plot, substrate crotonoyl CoA
  Inhibition kinetics with respect to crotonoyl CoA: uncompetitive against crotonoyl CoA
Purified PfENR [6]; inhibitor 0-750 nM
  Binding behaviour from progress curves: slow tight binding behaviour
Purified PfENR [6]; purified PfENR, progress curves
  Isomerization rate constant (k5 * 10^−2) (s^−1): 1.19 ± .045 10^−2 s^−1
Purified PfENR [6]; purified PfENR, progress curves, read-out: Dissociation rate constant (k6* 10^−3)
  koff: 0.001 s⁻¹
Purified PfENR [6]; purified PfENR, read-out: Dissociation constant (Ki)
  Ki: 0.0489 µM
[1]
  Mechanical hyperalgesia, paw withdrawal threshold: significantly reversed the mechanical hyperalgesia
Purified PfENR [2]
  IC50: 0.115 ± 0.12 µM
[3]; 15 mg/kg b. wt. i.p., 30 and 60 min
  MPE index, hot plate latency assay: preeminent analgesic activity compared to other compounds
[3]
  Analgesic activity compared with Ibuprofen, hot plate: potent analgesic activity at much lower concentration than Ibuprofen
[7]; Plasmodium berghei, 48 h, hepatic cell stages of P. berghei, two days treatment
  IC50: 51 µM
[7]; TC50 HepG2 / IC50 EEFs
  Therapeutic Index (TI) [=TC50/IC50]: 39.0 ± 4
Tail flick latency test
  Anti-nociceptive response, tail flick latency assay: better anti-nociceptive response than the Ibuprofen
[4]; 2.5 μM, added at ring stage, P. falciparum 3D7
  Stage of parasite growth arrest: arrested at the trophozoite stage
[4]; 2.5 μM, synchronised ring stage culture of P. falciparum 3D7
  Parasites observed to be dead: ~90%
[4]; [9]
  IC50: 1 ± 0.3 µM

## Oc1cc(Cl)ccc1Oc1ccc(Cl)cc1Cl [Triclosan, reference compound]
[4]; Plasmodium falciparum, 3D7, Erythrocyte
  IC50: 0.8 ± 0.1 µM
[8]
  IC50: 6.8 µM
